Laboratory results taken from paper PMC10029208, “Isolation and functional verification of an aspartate aminotransferase gene from Neoporphyra haitanensis” (BMC Plant Biology, 2023).
Like-named read-outs stand apart in the source and are kept apart here.

Legend:
NhAAT [1] = test system: T1, NhAAT; conditions: forward reaction; co-substrate 20 mM oxaloacetic acid; 50 µM PLP; 0.1 M sodium phosphate; optimal conditions pH 7.5, 45 °C; L-glutamic acid 0-100 mM
T1 construct: gene AAT

NhAAT [2] = test system: T2, NhAAT; experiment: coupled malate dehydrogenase assay, NADH decrease at […] nm, double reciprocal plot; assay type: biochemical, Neoporphyra haitanensis; conditions: reverse reaction; co-substrate 20 mM α-ketoglutarate; 50 µM PLP; 0.1 M sodium phosphate; optimal conditions pH 7.5, 45 °C; L-aspartic acid 0-100 mM
T2 construct: gene AAT; E. coli BL21 pLysS; homodimer predicted; catalytic Lys267; primers imply N-terminus MTTTAMAP and C-terminus ETVVKQE

Structure (SMILES) | Km (NhAAT [1]) [mM] | Km (NhAAT [2]) [mM]
N[C@@H](CCC(=O)O)C(=O)O [L-glutamic acid] | 5.67 | –
N[C@@H](CC(=O)O)C(=O)O [L-aspartic acid] | – | 6.16
